Structures can show the parent of a compound that is named as a salt. Where two headings read alike, the source gives them in different places.
What was measured:
[1] = system: human iPSC neurons, astrocytes and microglia treated with 5 μM sAβ42s; assay: Focused small molecule screen, triple culture (neuron, astrocyte, microglia), rescue from sAβ42s toxicity; format: cell-based; details: Homo sapiens, iPSC; for percent rescue from sAβ42s toxicity at 50 µM: 50.00 μM compound; for percent rescue from sAβ42s toxicity at 0.78 µM: 0.78 μM compound; for percent rescue from sAβ42s toxicity at 3.13 µM: 3.13 μM compound; for percent rescue from sAβ42s toxicity at 12.5 µM: 12.50 μM compound
Protocol: (§1) FIGS. 11A-11D show synapse % rescue versus MAP2% rescue (FIGS. 11A-11B) and beta III tubulin % rescue versus MAP2% rescue (FIGS. 11C-11D), in neurons and astrocytes (FIGS. 11A and 11C) or neurons, astrocytes, and microglia (FIGS. 11B and 11D) treated with 5 μM sAβ42s and small molecules from a focused screen of known neuroprotective agents at multiple concentrations (50 μM, 25 μM, 12.5 μM and 6.25 μM (double culture), 50 μM, 12.5 μM, 3.1 μM and 0.78 μM (triple culture). Small molecules that prevented toxicity in dendrites (MAP2), synapses (Synapsin 1/2), cell count (CUX2), or axons ([…]) at or above 30% were considered hits (red dotted line).
Frozen cells were thawed and immediately seeded at a density of 8,000 cells/well of a 384-well plate onto 8-week old neuron-astrocyte co-culture in Microglia media (BrainPhys™ neuronal media (Stem Cell Technologies) supplemented with 1× B27 with vitamin A, 1×N2 Plus Media Supplement (R&D Systems), 20 ng/mL BDNF, 20 ng/mL GDNF, 1 mM creatine, 200 nM L-ascorbic acid, 1 μg/mL mouse laminin, 0.5 mM GlutaMAX™ (Thermofisher), 0.5× penicillin-streptomycin, 1× normocin, 5 ng/mL TGF-β, 100 ng/mL human IL-34, 1.5 μg/mL cholesterol, 1 ng/mL gondoic acid, 100 ng/mL oleic acid, 460 μM thioglycerol, 1× insulin-transferrin-selenium, 25 ng/mL rhM-CSF, 5.4 μg/mL human insulin solution).
(§2) In double (neuron, astrocyte) and triple (neuron, astrocyte, microglia) cultures, each small molecule listed in Table 1 was tested in the AD model paradigm at up to four concentrations. Molecules that characterized ≥30% rescue in any of the four measurements of dendrites area (MAP2), synapses count (synapsin 1/2), or cell count (CUX2), or axon area (Beta III Tubulin; “BT3”)) were classified as hits (FIGS. 11A-11D, Table 2, and Table 3).

[2] = system: human iPSC neurons and astrocytes treated with 5 μM sAβ42s; assay: Focused small molecule screen, double culture (neuron, astrocyte), rescue from sAβ42s toxicity, high content imaging; format: cell-based; details: Homo sapiens, iPSC, double culture, 5 μM sAβ42s; for percent rescue from sAβ42s toxicity at 6.25 µM: 6.25 μM compound; for percent rescue from sAβ42s toxicity at 12.5 µM: 12.5 μM compound; for percent rescue from sAβ42s toxicity at 25 µM: 25 μM compound; for percent rescue from sAβ42s toxicity at 50 µM: 50 μM compound
Protocol: as §1
Neurons from both NSC lines were evaluated by immunofluorescence staining. Briefly, cells were fixed with 4% PFA and 4% sucrose at room temperature for 20 minutes using Bravo automation. Fixed cells were then washed 2 times with PBS using Biotek 406 microplate washer (Beckman Coulter), followed by permeabilization and blocking by incubation with a solution containing 1×PBS, 0.1% Triton X-100, 2% donkey serum, and 1% BSA at room temperature for 30 minutes. Blocking solution was removed and cells were incubated with primary antibodies in blocking solution overnight at 4° C. After washing 6 times with PBS on Biotek 406 cell plate washer (Beckman Coulter), cells were then incubated with fluorophore-conjugated secondary antibodies for 1 hour at room temperature in the dark to avoid photobleaching. Cells were then washed 6 more times in with PBS before imaging. Fluorescent images were captured using IN Cell 6000 confocal microscope (GE Healthcare Life Sciences). The image analysis was performed with IN Cell 6000 analysis software.
Prior to experimentation, media volume in wells containing neurons was equalized with liquid handling automation (Bravo) in order to ensure precise control of concentrations. All Aβ42 oligomers, anti-Aβ, small molecules, inflammatory cytokines were prepared at 10× concentration and added to Neuronal Culture Media at an appropriate volume. For the repeated dosing experiments, the media were refreshed 50% at each dosing first, before adding Aβ42 oligomers, and/or anti-Aβ antibody at the specified final concentration.
as §2

CCCC[C@@H](C=O)NC(=O)[C@H](CC(C)C)NC(=O)OCc1ccccc1 [Calpeptin]
percent rescue from sAβ42s toxicity at 50 µM ([1]; read-out: % B3T rescue): 66%
percent rescue from sAβ42s toxicity at 50 µM ([1]; read-out: % MAP2 rescue): 34%
percent rescue from sAβ42s toxicity at 50 µM ([1]; read-out: % Synapse rescue): 34%
percent rescue from sAβ42s toxicity at 6.25 µM ([2]; read-out: % B3T rescue): 9%
percent rescue from sAβ42s toxicity at 6.25 µM ([2]; read-out: % Cux2 rescue): 70%
percent rescue from sAβ42s toxicity at 6.25 µM ([2]; read-out: % MAP2 rescue): 22%
percent rescue from sAβ42s toxicity at 6.25 µM ([2]; read-out: % Synapse rescue): 6%
percent rescue from sAβ42s toxicity at 12.5 µM ([2]; read-out: % B3T rescue): 4%
percent rescue from sAβ42s toxicity at 12.5 µM ([2]; read-out: % Cux2 rescue): 79%
percent rescue from sAβ42s toxicity at 12.5 µM ([2]; read-out: % MAP2 rescue): 27%
percent rescue from sAβ42s toxicity at 12.5 µM ([2]; read-out: % Synapse rescue): 11%
percent rescue from sAβ42s toxicity at 25 µM ([2]; read-out: % B3T rescue): 7%
percent rescue from sAβ42s toxicity at 25 µM ([2]; read-out: % Cux2 rescue): 91%
percent rescue from sAβ42s toxicity at 25 µM ([2]; read-out: % MAP2 rescue): 39%
percent rescue from sAβ42s toxicity at 25 µM ([2]; read-out: % Synapse rescue): 9%
percent rescue from sAβ42s toxicity at 50 µM ([2]; read-out: % B3T rescue): 20%
percent rescue from sAβ42s toxicity at 50 µM ([2]; read-out: % Cux2 rescue): 96%
percent rescue from sAβ42s toxicity at 50 µM ([2]; read-out: % MAP2 rescue): 36%
percent rescue from sAβ42s toxicity at 50 µM ([2]; read-out: % Synapse rescue): 15%

COc1cccc2c1C(=O)c1c(O)c3c(c(O)c1C2=O)C[C@@](O)(C(C)=O)C[C@@H]3O[C@H]1C[C@H](N)[C@H](O)[C@H](C)O1 [Daunorubicin hydrochloride]
percent rescue from sAβ42s toxicity at 0.78 µM ([1]; read-out: % B3T rescue): 68%
percent rescue from sAβ42s toxicity at 0.78 µM ([1]; read-out: % MAP2 rescue): 74%
percent rescue from sAβ42s toxicity at 0.78 µM ([1]; read-out: % Synapse rescue): 52%
percent rescue from sAβ42s toxicity at 25 µM ([2]; read-out: % B3T rescue): 73%
percent rescue from sAβ42s toxicity at 25 µM ([2]; read-out: % Cux2 rescue): -23%
percent rescue from sAβ42s toxicity at 25 µM ([2]; read-out: % MAP2 rescue): -122%
percent rescue from sAβ42s toxicity at 25 µM ([2]; read-out: % Synapse rescue): -27%
percent rescue from sAβ42s toxicity at 50 µM ([2]; read-out: % B3T rescue): 101%
percent rescue from sAβ42s toxicity at 50 µM ([2]; read-out: % Cux2 rescue): -39%
percent rescue from sAβ42s toxicity at 50 µM ([2]; read-out: % MAP2 rescue): -124%
percent rescue from sAβ42s toxicity at 50 µM ([2]; read-out: % Synapse rescue): -27%

N#Cc1ccnc(Nc2cc(C3CCN(C4COC4)CC3)cc(N3CCC(F)(F)C3)n2)c1 [GNE-3511]
percent rescue from sAβ42s toxicity at 0.78 µM ([1]; read-out: % B3T rescue): 85%
percent rescue from sAβ42s toxicity at 0.78 µM ([1]; read-out: % MAP2 rescue): 91%
percent rescue from sAβ42s toxicity at 0.78 µM ([1]; read-out: % Synapse rescue): 79%
percent rescue from sAβ42s toxicity at 3.13 µM ([1]; read-out: % B3T rescue): 81%
percent rescue from sAβ42s toxicity at 3.13 µM ([1]; read-out: % MAP2 rescue): 95%
percent rescue from sAβ42s toxicity at 3.13 µM ([1]; read-out: % Synapse rescue): 77%
percent rescue from sAβ42s toxicity at 12.5 µM ([1]; read-out: % B3T rescue): 82%
percent rescue from sAβ42s toxicity at 12.5 µM ([1]; read-out: % MAP2 rescue): 102%
percent rescue from sAβ42s toxicity at 12.5 µM ([1]; read-out: % Synapse rescue): 81%
percent rescue from sAβ42s toxicity at 50 µM ([1]; read-out: % B3T rescue): 65%
percent rescue from sAβ42s toxicity at 50 µM ([1]; read-out: % MAP2 rescue): 66%
percent rescue from sAβ42s toxicity at 50 µM ([1]; read-out: % Synapse rescue): 56%
percent rescue from sAβ42s toxicity at 6.25 µM ([2]; read-out: % B3T rescue): 15%
percent rescue from sAβ42s toxicity at 6.25 µM ([2]; read-out: % Cux2 rescue): 18%
percent rescue from sAβ42s toxicity at 6.25 µM ([2]; read-out: % MAP2 rescue): 32%
percent rescue from sAβ42s toxicity at 6.25 µM ([2]; read-out: % Synapse rescue): 7%
percent rescue from sAβ42s toxicity at 25 µM ([2]; read-out: % B3T rescue): 17%
percent rescue from sAβ42s toxicity at 25 µM ([2]; read-out: % Cux2 rescue): 36%
percent rescue from sAβ42s toxicity at 25 µM ([2]; read-out: % MAP2 rescue): 49%
percent rescue from sAβ42s toxicity at 25 µM ([2]; read-out: % Synapse rescue): 14%
percent rescue from sAβ42s toxicity at 50 µM ([2]; read-out: % B3T rescue): 58%
percent rescue from sAβ42s toxicity at 50 µM ([2]; read-out: % Cux2 rescue): 81%
percent rescue from sAβ42s toxicity at 50 µM ([2]; read-out: % MAP2 rescue): 87%
percent rescue from sAβ42s toxicity at 50 µM ([2]; read-out: % Synapse rescue): 47%

— patent publication US20230014181A1, “CULTURE SYSTEM AND METHODS FOR IMPROVED MODELING OF NEUROLOGICAL CONDITIONS” (Genentech, Inc., priority 2021, published 2023)
